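GI50: concentration for 50% inhibition of growth. TGI marks complete inhibition of growth.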
Experiments:
Assay in all cases: NCI tumour cell line growth inhibition, 384-well format
NCI-H23 lung = test system: NCI-H23 lung
NCI-H322M lung = test system: NCI-H322M lung
NCI-H460 NSCLC = test system: NCI-H460 NSCLC
NCI-H522 lung = test system: NCI-H522 lung
NCI/ADR-RES ovarian = test system: NCI/ADR-RES ovarian
OVCAR-3 ovarian = test system: OVCAR-3 ovarian
OVCAR-4 ovarian = test system: OVCAR-4 ovarian
OVCAR-5 ovarian = test system: OVCAR-5 ovarian
OVCAR-8 ovarian = test system: OVCAR-8 ovarian
PC-3 prostate = test system: PC-3 prostate
RPMI-8226 leukemia = test system: RPMI-8226 leukemia
RXF 393 renal = test system: RXF 393 renal
SF-268 CNS = test system: SF-268 CNS
SF-295 CNS = test system: SF-295 CNS
SF-539 CNS = test system: SF-539 CNS
SK-MEL-28 melanoma = test system: SK-MEL-28 melanoma
SK-MEL-5 melanoma = test system: SK-MEL-5 melanoma
SK-OV-3 ovarian = test system: SK-OV-3 ovarian
SN12C renal = test system: SN12C renal
SNB-19 CNS = test system: SNB-19 CNS
SNB-75 CNS = test system: SNB-75 CNS
SR leukemia = test system: SR leukemia
SW-620 colon = test system: SW-620 colon
T-47D breast = test system: T-47D breast
TK-10 renal = test system: TK-10 renal
U251 glioblastoma = test system: U251 glioblastoma
UACC-257 melanoma = test system: UACC-257 melanoma
UACC-62 melanoma = test system: UACC-62 melanoma
UO-31 renal = test system: UO-31 renal

COCCOC(=O)C1=C(C)NC2=C(C(=O)CC(c3ccccc3OC)C2)C1c1cccc(O)c1 (stereo not drawn)
GI50 (NCI-H23 lung): 8.58 µM
TGI (NCI-H23 lung): 25.8 µM
GI50 (NCI-H322M lung): 12.7 µM
TGI (NCI-H322M lung): > 100 µM
GI50 (NCI-H460 NSCLC): 14.7 µM
TGI (NCI-H460 NSCLC): 30.8 µM
GI50 (NCI-H522 lung): 2.39 µM
TGI (NCI-H522 lung): 13.7 µM
GI50 (NCI/ADR-RES ovarian): 46.3 µM
TGI (NCI/ADR-RES ovarian): > 100 µM
GI50 (OVCAR-3 ovarian): 5.05 µM
TGI (OVCAR-3 ovarian): 17.6 µM
GI50 (OVCAR-4 ovarian): 2.14 µM
TGI (OVCAR-4 ovarian): 8.76 µM
GI50 (OVCAR-5 ovarian): 12 µM
TGI (OVCAR-5 ovarian): 43.1 µM
GI50 (OVCAR-8 ovarian): 6.94 µM
TGI (OVCAR-8 ovarian): 21.6 µM
GI50 (PC-3 prostate): 15.6 µM
TGI (PC-3 prostate): 53.6 µM
GI50 (RPMI-8226 leukemia): 1.08 µM
TGI (RPMI-8226 leukemia): 4.87 µM
GI50 (RXF 393 renal): 16.2 µM
TGI (RXF 393 renal): 34.9 µM
GI50 (SF-268 CNS): 15.5 µM
TGI (SF-268 CNS): 37 µM
GI50 (SF-295 CNS): 16.2 µM
TGI (SF-295 CNS): 37.5 µM
GI50 (SF-539 CNS): 11.2 µM
TGI (SF-539 CNS): 27.3 µM
GI50 (SK-MEL-28 melanoma): 11 µM
TGI (SK-MEL-28 melanoma): 31 µM
GI50 (SK-MEL-5 melanoma): 4.43 µM
TGI (SK-MEL-5 melanoma): 18.1 µM
GI50 (SK-OV-3 ovarian): 3.74 µM
TGI (SK-OV-3 ovarian): 20.4 µM
GI50 (SN12C renal): 15.6 µM
TGI (SN12C renal): 41.2 µM
GI50 (SNB-19 CNS): 11.4 µM
TGI (SNB-19 CNS): 38 µM
GI50 (SNB-75 CNS): 9.16 µM
TGI (SNB-75 CNS): 98.6 µM
GI50 (SR leukemia): 0.761 µM
TGI (SR leukemia): 11.5 µM
GI50 (SW-620 colon): 13 µM
TGI (SW-620 colon): 27 µM
GI50 (T-47D breast): 8.93 µM
TGI (T-47D breast): 66.7 µM
GI50 (TK-10 renal): 8.47 µM
TGI (TK-10 renal): 28.1 µM
GI50 (U251 glioblastoma): 17.2 µM
TGI (U251 glioblastoma): 44 µM
GI50 (UACC-257 melanoma): 5.14 µM
TGI (UACC-257 melanoma): 22.8 µM
GI50 (UACC-62 melanoma): 2.38 µM
TGI (UACC-62 melanoma): 16.6 µM
GI50 (UO-31 renal): 34.6 µM
TGI (UO-31 renal): > 100 µM
